Laboratory results from US4788206A, “Pentadieneamides” (Hoffmann-La Roche Inc., priority 1987, dated 1988).

Key:
[1] = biological target: T1, PAF Binding, dog platelets (Canis lupus familiaris, UniProt A0A8I3NSH0); experiment: PAF Binding Assay (inhibition of 3H-PAF binding to washed dog platelets); details: dog platelets, 3H-PAF, 10 minutes at room temperature; read-out: Inhib of PAF Binding IC50
T1 construct: Washed platelets were prepared by resuspending the platelet pellet once with PBS containing 1 mM EDTA; from tissue; host or cells: washed platelets from dog blood
T1 sequence (A0A8I3NSH0 1-343): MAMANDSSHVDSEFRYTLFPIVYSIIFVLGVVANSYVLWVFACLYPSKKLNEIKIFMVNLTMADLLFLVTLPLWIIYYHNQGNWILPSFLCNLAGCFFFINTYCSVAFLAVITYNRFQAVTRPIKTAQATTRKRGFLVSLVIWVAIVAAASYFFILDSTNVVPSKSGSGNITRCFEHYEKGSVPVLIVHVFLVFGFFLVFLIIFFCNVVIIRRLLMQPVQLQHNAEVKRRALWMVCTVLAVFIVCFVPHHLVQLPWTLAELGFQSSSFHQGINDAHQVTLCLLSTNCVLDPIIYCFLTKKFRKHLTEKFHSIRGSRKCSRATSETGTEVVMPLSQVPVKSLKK
Outline: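 Washed dog platelets (2×10^7 per tube, in 0.1% BSA-PBS) incubated 10 min at room temperature with 3H-PAF and test analogs. Bound ligand separated by 1 min centrifugation through silicone oil; platelet pellet radioactivity counted by liquid scintillation.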

[2] = test system: PAF-Induced Bronchoconstriction; experiment: PAF Induced Bronchoconstriction Assay; assay type: in vivo, guinea pig; details: for inhibition in vivo at 50 mg/kg: Cavia porcellus, po, 50 mg/Kg p.o., 2-hour pretreatment, read-out: Percent Inhib. of PAF-Induced Bronchoconstriction, 50 mg/Kg p.o.; for Percent Inhib. of PAF-Induced Bronchoconstriction, mg/Kg i.v.: i.v. (dose not given), 1 minute pretreatment, PAF 1.0 μg/kg i.v.
Outline: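 Male Hartley guinea pigs, urethane-anesthetized (2 g/kg i.p.), ventilated, with succinylcholine 1.2 mg/kg i.v. and propranolol 0.1 mg/kg i.v. pretreatment. Compound given i.v. 1 min or by oral gavage 2 h before i.v. PAF challenge at 1.0 μg/kg. Peak tracheal pressure rise over baseline compared with control mean gives % inhibition.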

[3] = test system: PAF-Induced Platelet Count Decrease; experiment: PAF Induced Platelet Count Decrease; assay type: in vivo, guinea pig; details: for inhibition in vivo at 3 mg/kg: Cavia porcellus, Platelet, read-out: Percent Inhib. of PAF-Induced Platelet Count Decrease, 3 mg/Kg; for inhibition in vivo at 3 mg/kg / Percent Inhib. of PAF-Induced Platelet Count Decrease, 3 mg/Kg: 3 mg/Kg (route not given)
Procedure: PAF Induced Platelet Count Decrease
Male Hartley guinea pigs weighing between 500 and 900 grams were fed standard guinea pig chow and tap water ad libitum. PAF was solubilized in ethanol and stored as a 2 mM stock solution at -70° C. The stock solutuion of PAF was diluted to 1 pM in Tris buffer pH 7.4 and 0.1% BSA for all experiments.
(a) Intravenous Procedure
Guinea pigs were anesthetized with urethane (1.6 g/kg, i.p.). A catheter (PE50) was introduced into the right carotid artery for withdrawing blood. A second catheter PE10) was introduced into the jugular vein for injecting drugs and for administering the PAF challenge (75 ng/kg, i.v.). A control blood sample was obtained and platelets were counted in a whole blood platelet analyzer. PAF was then given and blood samples were taken 15, 30, and 60 seconds after the challenge for platelet counts. Fifteen minutes later, selected concentrations of the test compound were solubilized in DMSO and injected intravenously into a group of 4-6 animals. Only one concentration of antagonist was used in each animal group. Fifteen minutes after drug injection, blood smaples were taken before and 15, 30, and 60 sec after the PAF challenge, and analyzed for platelet number.
Animals were anesthetized with sodium pentobarbital (35 mg/kg. i.p.) and the caritoid artery and jugular vein were cannulated as described above. The cannulae were exteriorized at the base of the neck and the animals were allowed to recover. At least 18 hours after surgery, conscious unrestrained guinea pigs were used in the experiment. The animals were challenged two time with PAF (120 ng/kg. i.v.); the first to establish a consistent response to PAF and the second to serve as a control for the PAF challenge. Blood samples were taken before and 15, 30, and 45 seconds after PAF challenge and platelets were counted. Thirty minutes after the control PAF challenge, the animal were orally dosed with either gum acacia or the test compound. Animals were then challenged with PAF at 1, 3, 5, and 24 hours after the administration of the drug.
Data Analysis and Statistics
The % change, i.e., the difference in platelet number before and after PAF challenge was calculated by: [formula]
Statistical significance (p<0.05) of the difference between the mean PAF control and mean drug treated activity was determined with paried Students's t-test.

Row | Compound | IC50 [1] [nM] | inhibition in vivo at 50 mg/kg [2] [%] | inhibition in vivo at 3 mg/kg [3] [%] | Percent Inhib. of PAF-Induced Bronchoconstriction, mg/Kg i.v. [2] | Percent Inhib. of PAF-Induced Platelet Count Decrease, 3 mg/Kg [3] | Percent Inhib. of PAF-Induced Platelet Count Decrease, 3 mg/Kg (1 min) ([3]; 3 mg/Kg, (1 min)) [%] | Percent Inhib. of PAF-Induced Platelet Count Decrease, 30 mg/Kg p.o. [3] [%]
1 | COc1cccc(/C(=C/C=C/C(=O)NCCCCc2cccnc2)c2ccccc2)c1 [(2E,4E)-5-(3-Methoxyphenyl)-5-phenyl-N-[4-(3-pyridinyl)butyl]-2,4-pentadienamide] | 20 | 13 ± 18 | 40 |  |  |  | 
2 | COc1cccc(/C(=C\C=C\C(=O)NCCCCc2cccnc2)c2cccc(F)c2)c1 [(2E,4E)-5-(3-fluorophenyl)-5-(3-methoxyphenyl)-N-[4-(3-pyridinyl)butyl]-2,4-pentadienamide] | 25 | 25 ± 14 |  | 88 ± 4% | inactive |  | 
3 | COc1cccc(/C(=C/C=C/C(=O)NCCCCc2cccnc2)c2cccc(F)c2)c1 [(2E,4Z)-5-(3-fluorophenyl)-5-(3-methoxyphenyl)-N-[4-(3-pyridinyl)butyl]-2,4-pentadienamide] | 40 | 1 ± 8 |  | 90 ± 5% |  | 67 | 
4 | COc1cccc(/C(=C\C=C\C(=O)NCCCCc2cccnc2)c2ccccc2)c1 [(2E,4Z)-5-(3-methoxyphenyl)-5-phenyl-N-[4-(3-pyridinyl)butyl]-2,4-pentadienamide] | 35 | 10 ± 10 |  |  | inactive |  | 
5 | O=C(/C=C/C=C(c1ccccc1)c1ccccc1)NCCCCc1cccnc1 [(E)-5,5-Diphenyl-N-[4-(3-pyridinyl)butyl]-2,4-pentadienamide] | 55 | 12 ± 1 | 14 | 35 ± 15% |  |  | 
6 | COc1cccc(C(=C/C=C/C(=O)NCCCCc2cccnc2)c2cccc(OC)c2)c1 [(E)-5,5-bis (3-methoxyphenyl)-N-[4-(3-pyridinyl)butyl]-2,4-pentadienamide] | 2 | 31 ± 11 | 75 | 69 ± 7% |  |  | 48
7 | O=C(/C=C/C=C(c1cccc(F)c1)c1cccc(F)c1)NCCCCc1cccnc1 [(E)-5,5-bis(3-Fluorophenyl)-N-[4-(3-pyridinyl)butyl]-2,4-pentadienamide] | 20 | 37 ± 11 | 61 | 72 ± 16% |  |  | 58
8 | O=C(/C=C/C=C(c1cccc(Cl)c1)c1cccc(Cl)c1)NCCCCc1cccnc1 [(E)-5,5-bis(3-chlorophenyl)-N-[4-(3-pyridinyl)butyl]-2,4-pentadienamide] |  | 35 ± 7 | 21 | 76 ± 14% |  |  | 
9 | COc1ccc(C(=C/C=C/C(=O)NCCCCc2cccnc2)c2ccc(OC)cc2)cc1 [(E)-5,5-bis(4-Methoxyphenyl)-N-[4-(3-pyridinyl)butyl]-2,4-pentadienamide] | 25 | 82 ± 12 | 40 | 92 ± 3% |  |  | 45
10 | O=C(/C=C/C=C(c1ccc(Cl)cc1)c1ccc(Cl)cc1)NCCCCc1cccnc1 [(E)-5,5-bis(4-chlorophenyl)-N-[4-(3-pyridinyl)butyl]-2,4-pentadienamide] | 60 | 63 ± 10 | 0 | 95 ± 2% |  |  | 
11 | O=C(/C=C/C=C(c1ccc(F)cc1)c1ccc(F)cc1)NCCCCc1cccnc1 [(E)-5,5-bis(4-fluorophenyl)-N-[4-(3-pyridinyl)butyl]-2,4-pentadienamide] | 40 | 97 ± 1 | 18 | 91 ± 3% |  |  | 
12 | O=C(/C=C/C=C(c1ccccc1C(F)(F)F)c1ccccc1C(F)(F)F)NCCCCc1cccnc1 [(E)-5,5-bis[2-(Trifluoromethyl)phenyl]-N-[4-(3-pyridinyl)butyl]-2,4-pentadienamide] | 80 |  | 0 | 6 ± 10% |  |  | 
13 | O=C(/C=C/C=C(c1cccc(C(F)(F)F)c1)c1cccc(C(F)(F)F)c1)NCCCCc1cccnc1 [(E)-5,5-bis[3-(trifluoromethyl)phenyl]-N-[4-(3-pyridinyl)butyl]-2,4-pentadienamide] | 150 |  | 83 | inactive |  |  | 
14 | C[C@H](CCCc1cccnc1)NC(=O)/C=C/C=C(c1ccc(F)cc1)c1ccc(F)cc1 [[R-(E)]-5,5-bis (4-fluorophenyl)-N-[1-methyl-4-(3-pyridinyl)butyl]-2,4-pentadienamide] |  | 53 ± 11 | 11 | 70 ± 9% |  |  | 
15 | C[C@H](CCCc1cccnc1)NC(=O)/C=C/C=C(c1cccc(F)c1)c1cccc(F)c1 [[R-(E)]-5,5-bis(3-fluorophenyl)-N-[1-methyl-4-(3-pyridinyl)butyl]-2,4-pentadienamide] |  | 91 ± 5 | 17 | 73 ± 6% |  |  | 
16 | COc1ccc(C(=C/C=C/C(=O)N[C@H](C)CCCc2cccnc2)c2ccc(OC)cc2)cc1 [[R-(E)]-5,5-bis(4-methoxyphenyl)-N-[1-methyl-4-(3-pyridinyl)butyl]-2,4-pentadienamide] |  | 97 ± 2 | 85 | 87 ± 4% |  |  | 81
17 | COc1ccc(/C(=C/C=C/C(=O)N[C@H](C)CCCc2cccnc2)C2CC2)cc1 [[R-(E,E)]-5-cyclopropyl-5-(4-methoxyphenyl)-N-[1-methyl-4-(3-pyridinyl)butyl]-2,4-pentadienamide] | 50 |  |  | 35 ± 5% |  |  | 
18 | C[C@@H](CCCc1cccnc1)NC(=O)/C=C/C=C(c1cccc(F)c1)c1cccc(F)c1 [[S-(E)]-5,5-bis(3-fluorophenyl)-N-[1-methyl-4-(3-pyridinyl)butyl]-2,4-pentadienamide] |  | 46 ± 8 | 19 | 34 ± 7% |  |  | 
19 | COc1ccc(C(=C/C=C/C(=O)N[C@@H](C)CCCc2cccnc2)c2ccc(OC)cc2)cc1 [[S-(E)]-5,5-bis(4-Methoxyphenyl)-N-[1-methyl-4-(3-pyridinyl)butyl]-2,4-pentadienamide] |  | 90 ± 6 | 42 | 42 ± 13% |  |  | 
20 | CC[C@@H](CCCc1cccnc1)NC(=O)/C=C/C=C(c1ccc(OC)cc1)c1ccc(OC)cc1 [[S-(E)]-N-[1-ethyl-4-(3-pyridinyl)butyl]-5,5-bis (4-methoxyphenyl)-2,4-pentadienamide] | 400 |  |  | 44 ± 8% |  |  | 
21 | CCCCC/C(=C\C=C\C(=O)N[C@@H](C)CCCc1cccnc1)c1ccc(OC)cc1 [[S-(E,E)]-5-(4-methoxyphenyl)-N-[1-methyl-4-(3-pyridinyl)butyl]-2,4-decadienamide] | 120 | 25 ± 13 |  | 46 ± 16% |  |  | 
